# Measured values taken from patent US20050048508A1, “Trehalose receptor and method for detecting trehalose with the same” (KABUSHIKI KAISHA HAYASHIBARA SEIBUTSU KAGAKU KENKYUJO, priority 2002, published 2005).
# Target: T1, T1R2 and T1R3 with G protein α-subunits (α15 and α16/Z chimeric protein) (Mus musculus, UniProt Q925D8+Q925I4, E350G/G527D/I706N/P352R/R175Q)
# T1 construct: expressed in transfected cells; host or cells: 293 cells, RCB 1637 (human embryonic kidney)
# T1 sequence (Q925I4 20-843 R175Q/E350G/P352R/G527D): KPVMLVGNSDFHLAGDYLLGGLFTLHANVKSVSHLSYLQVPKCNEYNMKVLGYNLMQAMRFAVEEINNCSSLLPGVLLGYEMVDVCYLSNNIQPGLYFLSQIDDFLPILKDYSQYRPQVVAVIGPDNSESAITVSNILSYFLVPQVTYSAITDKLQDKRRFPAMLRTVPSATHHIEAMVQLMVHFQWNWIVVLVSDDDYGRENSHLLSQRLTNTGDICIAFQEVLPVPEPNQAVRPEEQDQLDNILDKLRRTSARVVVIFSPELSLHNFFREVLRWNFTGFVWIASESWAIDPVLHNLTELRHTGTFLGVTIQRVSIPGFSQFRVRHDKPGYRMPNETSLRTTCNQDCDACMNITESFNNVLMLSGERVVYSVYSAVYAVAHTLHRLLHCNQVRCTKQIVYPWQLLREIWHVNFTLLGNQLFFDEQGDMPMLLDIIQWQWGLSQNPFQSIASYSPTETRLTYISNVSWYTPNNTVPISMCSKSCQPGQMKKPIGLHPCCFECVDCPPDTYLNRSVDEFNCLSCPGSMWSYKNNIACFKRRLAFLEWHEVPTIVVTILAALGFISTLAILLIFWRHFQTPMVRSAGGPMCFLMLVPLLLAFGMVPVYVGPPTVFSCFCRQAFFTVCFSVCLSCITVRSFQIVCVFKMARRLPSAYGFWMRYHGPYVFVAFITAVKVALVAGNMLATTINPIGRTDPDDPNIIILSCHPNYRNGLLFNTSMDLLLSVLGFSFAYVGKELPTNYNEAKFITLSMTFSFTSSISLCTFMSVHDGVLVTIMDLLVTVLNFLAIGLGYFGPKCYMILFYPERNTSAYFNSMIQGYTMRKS
# T1 sequence (Q925D8 21-858 I706N): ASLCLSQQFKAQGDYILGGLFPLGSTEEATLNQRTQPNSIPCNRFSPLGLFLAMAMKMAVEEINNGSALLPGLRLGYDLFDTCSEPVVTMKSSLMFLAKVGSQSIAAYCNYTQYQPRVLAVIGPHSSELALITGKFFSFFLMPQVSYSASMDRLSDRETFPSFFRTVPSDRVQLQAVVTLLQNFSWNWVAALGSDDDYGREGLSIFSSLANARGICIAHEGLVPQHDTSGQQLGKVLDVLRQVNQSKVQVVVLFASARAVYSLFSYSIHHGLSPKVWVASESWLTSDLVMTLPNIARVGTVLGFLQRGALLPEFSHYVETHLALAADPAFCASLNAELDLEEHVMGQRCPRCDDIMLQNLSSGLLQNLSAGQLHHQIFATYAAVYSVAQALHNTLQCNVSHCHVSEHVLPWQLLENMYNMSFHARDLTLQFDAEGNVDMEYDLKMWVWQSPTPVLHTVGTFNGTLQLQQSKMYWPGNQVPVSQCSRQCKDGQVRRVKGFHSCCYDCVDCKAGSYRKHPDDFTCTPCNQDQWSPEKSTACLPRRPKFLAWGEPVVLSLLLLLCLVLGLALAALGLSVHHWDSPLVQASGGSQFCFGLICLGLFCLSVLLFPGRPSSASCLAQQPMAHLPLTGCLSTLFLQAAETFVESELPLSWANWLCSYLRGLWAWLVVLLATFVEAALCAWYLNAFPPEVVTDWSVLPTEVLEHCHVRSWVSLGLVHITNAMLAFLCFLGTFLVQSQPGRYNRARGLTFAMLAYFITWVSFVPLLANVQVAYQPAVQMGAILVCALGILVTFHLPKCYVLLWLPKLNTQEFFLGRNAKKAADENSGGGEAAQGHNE
# Test: Intracellular calcium ion assay, 293 cells coexpressing G protein α-subunits, T1R2 and T1R3
# Format: cell-based
# Conditions: 293 cells: T1R2 + T1R3 + G protein α-subunits, 0.67 ml of 1 M saccharide solution added to 2 ml cell suspension, FLUO-4 AM
# Protocol: The coexpression vector for the G protein α-subunit α15 and the G protein α16/Z chimeric protein (hereinafter designated as “G protein α-subunits”) obtained in Example 1-3 was gene transferred to 293 cells, RCB 1637, a human embryonic kidney cell line, available from the Riken Bioresource Center, Ibaraki, Japan, by conventional lipofection. The gene transferred cells were suspended in Dulbecco's Modified Eagle's Medium (D-MEM) supplemented with 1 mg/L of “PUROMYCIN”, a trade mane of puromycin commercialized by Edge Biosystems, MD, USA, and 10% (v/v) of fetal calf serum to give a cell density of 2×10^6 cells/ml and cultured in a plastic petri dish for cell culture. After 10 to 14 days of incubation, a puromycin-resistant cell colony was collected and confirmed its production of the G protein α-subunit proteins with an index of their mRNA level by conventional RT-PCR. Thus, a cell line capable of expressing the G protein α-subunit proteins was established. To the cells were gene transferred an expression vector for the sweet taste receptor protein T1R1, T1R2, or T1R3 in Example 2-2; or a coexpression vector for a pair of T1R1 and T1R2, T1R1 and T1R3, or T1R2 and T1R3 by conventional lipofection. The resulting cells were suspended in D-MEM supplemented with 1 mg/L of “PUROMYCIN”, 500 mg/L of “GENETICIN”, and 10% (v/v) of fetal calf serum and cultured in a plastic petri dish for cell culture. […]
# The captioned reactivity test was conducted according to a conventional intracellular calcium ion assay: 293 Cells prepared in Example 3, capable of coexpressing the G protein α-subunits and the sweet taste receptor(s), were cultured in a plastic petri dish for cell culture until reaching its confluent phase. […] Two milliliters of the resultant cell suspension was injected into a glass cuvette, commercialized by Hitachi, Ltd., Tokyo, Japan, and analyzed on “HITACHI 650-40”, a fluorescence spectrophotometer commercialized by Hitachi, Ltd., Tokyo, Japan. […]
Influx of calcium ion,Influx of calcium ion (listed as sucrose),Structure (SMILES)
Positive,–,OC[C@H]1O[C@H](O[C@H]2O[C@H](CO)[C@@H](O)[C@H](O)[C@H]2O)[C@H](O)[C@@H](O)[C@@H]1O [Trehalose]
Positive,detected,"OC[C@H]1O[C@@](CO)(O[C@H]2O[C@H](CO)[C@@H](O)[C@H](O)[C@H]2O)[C@@H](O)[C@@H]1O [Sucrose, reference compound]"
